Here are results for three molecules from doi:10.1101/2022.03.28.485913v1, “A unified in vitro to in vivo fluorescence lifetime screening platform yields amyloid β aggregation inhibitors” (biorxiv, 2022).

The target of assay [1] is T1, amyloid β (1-42) (Aβ42) (Homo sapiens, UniProt P05067).
T1 construct: gene APP; Amyloid-beta 1-42 peptide cut from APP, 42 residues; synthetic, unlabelled or partly mixed with N-terminally HiLyte Fluor 488 labelled peptide; recombinant 15N peptide (AlexoTech) for NMR; aggregating, starting from monomer
Description: nanoFLIM aggregation assay, TEM. The format is biochemical. The settings on record: 10 μM Aβ42-488, 50% labelled, 10 or 50 μM compound; ThT assay masked by compound fluorescence.

Assay [2] has as its target T1, amyloid β (1-42) (Aβ42). The experiment in a line: nanoFLIM aggregation kinetics, fluorescence lifetime in microfluidic droplets, initial rates. The class given is biochemical.

T1 sequence (P05067 672-713): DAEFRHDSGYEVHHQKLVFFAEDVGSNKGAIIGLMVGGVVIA

In the case of `O=C(O)c1cc(-c2cc(F)cc(Cl)c2)nc2ccccc12` [MJ042], on amyloid β (1-42) (Aβ42) [1], the “nanoFLIM aggregation assay, TEM” value was “MJ001 and MJ042 (Fig. 2a,b), showed weaker, yet significant inhibitory activity”.

For `O=C(O)c1cc(-c2cccc(Br)c2)nc2ccc([N+](=O)[O-])cc12` [MJ040], on amyloid β (1-42) (Aβ42) [2], half-maximal inhibition (IC50) required 4.3 ± 1.3 µM.

With `COC(=O)c1ccccc1NC(=O)c1cc(-c2ccccc2)nc2ccccc12` [MJ001], the “nanoFLIM aggregation assay, TEM” value at amyloid β (1-42) (Aβ42) [1] is “MJ001 and MJ042 (Fig. 2a,b), showed weaker, yet significant inhibitory activity”.

One may read the IC50 as the concentration that gives 50% inhibition.
